# Key:
# [1] = Cytotoxicity against human HONE1 cells at 50 uM; type: functional
# [2] = test system: NUGC; assay: Cytotoxicity against human NUGC cells at 50 uM; type: functional
SMILES,inhibition at 50 µM [1],inhibition at 50 µM [2]
Oc1ccc([C@H]2CCc3ccc(O)cc3O2)cc1 [TUPICHINOL C],50%,
C=C1CC[C@@]2(OC1)O[C@H]1C[C@H]3[C@@H]4CC[C@]5(O)C[C@@H](O)[C@@H](O)[C@@H](O)[C@]5(C)[C@H]4CC[C@]3(C)[C@H]1[C@@H]2C [TUPICHIGENIN A],,42%
C=C1CC[C@@]2(OC1)O[C@H]1C[C@H]3[C@@H]4CC=C5C[C@H](O)C[C@@H](O)[C@]5(C)[C@H]4CC[C@]3(C)[C@H]1[C@@H]2C,45%,
CC(=O)C1=CC[C@H]2[C@@H]3CC=C4C[C@H](O)C[C@@H](O)[C@]4(C)[C@H]3CC[C@]12C [TUPIPREGNENOLONE],,25%
COc1ccc2c(c1C)O[C@H](c1ccc(O)cc1)[C@H](O)C2 [TUPICHINOL A],,30%
C=C1CC[C@@]2(OC1)O[C@H]1C[C@H]3[C@@H]4CC[C@]5(O)C[C@@H](OC(C)=O)[C@@H](OC(C)=O)[C@@H](OC(C)=O)[C@]5(C)[C@H]4CC[C@]3(C)[C@H]1[C@@H]2C [TUPICHIGENIN AA],,50%
C=C1CC[C@@]2(OC1)O[C@H]1C[C@H]3[C@@H]4CC[C@]5(O)[C@@H](O)[C@@H](O)[C@@H](O)[C@@H](O)[C@]5(C)[C@H]4CC[C@]3(C)[C@H]1[C@@H]2C,100%,100%
C=C1CC[C@@]2(OC1)O[C@H]1C[C@H]3[C@@H]4CC[C@]5(O)[C@@H](O)[C@@H](O)C[C@@H](O)[C@]5(C)[C@H]4CC[C@]3(C)[C@H]1[C@@H]2C [RANMOGENIN A],,80%
C=C1CC[C@@]2(OC1)O[C@H]1C[C@H]3[C@@H]4CC[C@]5(O)C[C@@H](O)[C@@H](OC(C)=O)[C@@H](OC(C)=O)[C@]5(C)[C@H]4CC[C@]3(C)[C@H]1[C@@H]2C [TUPICHIGENIN AC],,40%
C=CCc1ccc(O)c(O)c1 [HYDROXYCHAVICOL],,96%
